Patent publication US12318503B2, “Functional amyloid hydrogels and applications thereof” (Indian Institute of Technology Bombay, priority 2019, dated 2025)
Where a SMILES comes first, the peptide text is derived from it. The star is where a group is joined. Fmoc = O=C(OCC1c2ccccc2-c2ccccc21)*

How the values were obtained:
MCF7 spheroids [1] = assay: MTT cytotoxicity of chemotherapeutic drugs on spheroids versus 2D culture; format: cell-based; settings: 0-14 μM, 24 h
Description: Cytotoxicity assays by MIT: MCF7 spheroids were cultured for five days in DMEM (Dulbecco's modified Eagle's medium) with 10% FBS, in a 5% CO2 incubator at 37° C. followed by treatment with different chemotherapeutics drugs (0-14 μM) for 24 h. For control, media containing buffer. After 24 h of incubation, 10 μl of MTT solution (5 mg/ml prepared in PBS) was added to each well and incubated for 4 h. Subsequently, 100 μl of SDS-DMF solution (50% DMF and 20% SDS, pH 4.75) were added and kept for overnight incubation. The absorption values at 560 nm and 690 nm (background absorbance) were determined using a SpectraMax M2e microplate reader (Molecular Devices, USA). The cell viability was plotted as percentage cell viability by considering 100% viability for the buffer control (FIG. 18 A).
Dense spheroids tended to show relative resistance to all these five chemotherapeutic drugs in the 3D-culture as compared to this resistance in 2D. […] These findings confirm that the formation of dense spheroids in 3D-culture plays a role in determining the sensitivity of the cell lines to these chemotherapeutic drugs. […] 3D, geometrical difference can have far-reaching impacts in terms of understanding physiological response.

MDA-MB-231 cells = assay: Efficacy of DOX released from hydrogels (MTT, Annexin-PI FACS); format: cell-based
Description: MDA-MB-231, breast cancer cell line was used for determining the efficacy of DOX release. To do so, MDA-MB-231 cells were grown on the DOX encapsulated hydrogels at a density of 2×10000 and cultured in complete DMEM media for 24 hrs. After 24 hrs, the cell morphology was imaged and the viability was then quantified using 3-(4,5-dimethylthiazol-2-yl)-2,5-diphenyl tetrazolium bromide (MTT) assay. FIG. 22A phase contrast images of MDA-MB-231 cells treated with DOX encapsulated hydrogels. […] For FACS analysis, MDAMB-231 cells were seeded on the hydrogel in the density 50,000 cells/well and allowed to grow for 24 hrs. Following the incubation, the cells were trypsinized and harvested in an eppendorf. The cell pellet was obtained by centrifugation and was resuspended in binding buffer. The percentage of apoptotic cells were measured by Annexin-PI staining method. 2 μl each of Annexin and PI was added to the resuspended cells and incubated for 5 mins before acquiring the results using FACS. […] To determine the efficacy of RA released from the hydrogel, SH-SY5Y neuroblastoma cells were seeded on hydrogel encapsulated with and without RA at a density of 1×10^4 and cultured in complete DMEM media. […] After 48 hrs, the morphology of these cells was analyzed by phase contrast images (FIG. 23A) and the cell shape was quantified by circularity using Image J software (FIG. 23C).

[2] = MTT cytotoxicity assay of cells cultured on the hydrogels; format: cell-based; settings: human, hydrogel 5 mg/ml peptide, 24 hours culture, read-out: cell viability
Description: To determine whether the functional amyloid hydrogel is non-toxic in nature, MTT (3-[4,5-dimethylthiazol-2-yl]-2,5 diphenyl tetrazolium bromide) assay was performed. The amyloid hydrogels were casted at a concentration of 5 mg/ml for each peptide and neuroblastoma, SH-SY5Y cells at a density of 10^4 were seeded and cultured on the hydrogels for 24 hours. The MTT reagent (0.5 mg/ml final concentration) was added to the cells after 24 hrs of culture and the cells were further incubated for 4 h. Finally, 100 μl of 50% N, N-dimethylformamide/20% sodium dodecyl sulfate solution was added, and the mixture was incubated overnight. The absorption was then measured at 560 nm with an automatic microtiter plate reader (Thermo Fisher Scientific, Waltham, MA, USA). FIG. 9 depicts the percentage of cell viability.

SH-SY5Y cells = assay: Differentiation of cells on RA encapsulated hydrogels; format: cell-based; settings: RA released from RA encapsulated hydrogels
Description: MDA-MB-231, breast cancer cell line was used for determining the efficacy of DOX release. To do so, MDA-MB-231 cells were grown on the DOX encapsulated hydrogels at a density of 2×10000 and cultured in complete DMEM media for 24 hrs. After 24 hrs, the cell morphology was imaged and the viability was then quantified using 3-(4,5-dimethylthiazol-2-yl)-2,5-diphenyl tetrazolium bromide (MTT) assay. FIG. 22A phase contrast images of MDA-MB-231 cells treated with DOX encapsulated hydrogels. […] For FACS analysis, MDAMB-231 cells were seeded on the hydrogel in the density 50,000 cells/well and allowed to grow for 24 hrs. Following the incubation, the cells were trypsinized and harvested in an eppendorf. The cell pellet was obtained by centrifugation and was resuspended in binding buffer. The percentage of apoptotic cells were measured by Annexin-PI staining method. 2 μl each of Annexin and PI was added to the resuspended cells and incubated for 5 mins before acquiring the results using FACS. […] After 48 hrs, the morphology of these cells was analyzed by phase contrast images (FIG. 23A) and the cell shape was quantified by circularity using Image J software (FIG. 23C).
The SH-SY5Y cells grown on hydrogel were immunostained with β-III tubulin (β-IIIT), a neuron specific marker to determine the efficacy of the released RA (FIG. 23B). […] The gene expression was analyzed by Real-time PCR technique.

MCF7 spheroids [3] = assay: Fluorescence live/dead study of drug effect on 2D versus 3D; format: cell-based; settings: 24 h
Description: Fluorescence study was also performed to observe the effect of drug on 2D versus 3D. Here, after maturation of spheroids i.e., 5 days of culture on gel 4, different dose of paclitaxel (2-10 μM) was added for 24 h. To assess the effect of drug, cell viability was observed by staining through calcein AM and ethidium homodimer-1. Images were captured after incubation with dyes for 1 h. […] On the other hand, at the concentration of 4 μM, 70% of the cells for 2D are dead for the drug paclitaxel (FIG. 18 B).

[4] = system: STZ-induced diabetic rat model; assay: Insulin delivery from hydrogels in diabetic rats
Description: The functional amyloid hydrogel encapsulated with insulin (5 mg/ml) was administered subcutaneously to the diabetic rat model. Blood samples were collected from the tail veins of rats prior to drug administration and at different time intervals after dosing. Diabetes model rats were fasted for 12 h prior to and remained fasted during the experiment, but were allowed water ad libitum. The blood glucose level was checked biochemically at regular interval. The insulin released from the hydrogel in vivo was also monitored. To do that, blood samples were centrifuged (10,000 rpm, 4° C. for 15 min) and subsequently quantified using an appropriate insulin ELISA kit and during various time intervals.

O=c1[nH]cc(F)c(=O)[nH]1 [5FU]
death in 3D (MCF7 spheroids [1]): more death in 3D as compared to other drugs

COc1cccc2c1C(=O)c1c(O)c3c(c(O)c1C2=O)C[C@@](O)(C(=O)CO)C[C@@H]3O[C@H]1C[C@H](N)[C@H](O)[C@H](C)O1 [DOX, doxorubicin]
change in cell viability (FACS, Annexin-PI) (MDA-MB-231 cells; DOX encapsulated in the hydrogels, 24 hrs): decrease in cell viability
cancer cell death (MDA-MB-231 cells; DOX released from DOX encapsulated hydrogels): ~70%

CC[C@H](C)[C@H](NC(=O)[C@H](CCC(=O)O)NC(=O)[C@H](CCSC)NC(=O)[C@H](CC(C)C)NC(=O)[C@H](CCCCN)NC(=O)OCC1c2ccccc2-c2ccccc21)C(=O)O [FA1, KLMEI] (Fmoc-KLMEI-OH; N-terminus and C-terminus assumed)
viability at 24 h, 5000 µg/mL [2]: > 80%

CC[C@H](C)[C@H](NC(=O)[C@H](CC(=O)O)NC(=O)[C@H](CC(C)C)NC(=O)[C@H](CC(C)C)NC(=O)[C@H](CCCCN)NC(=O)OCC1c2ccccc2-c2ccccc21)C(=O)O [FA2, KLLDI] (Fmoc-KLLDI-OH; N-terminus and C-terminus assumed)
viability at 24 h, 5000 µg/mL [2]: > 80%

CC(C)C[C@H](NC(=O)[C@@H](NC(=O)[C@@H](NC(=O)[C@H](C)NC(=O)OCC1c2ccccc2-c2ccccc21)C(C)C)C(C)C)C(=O)N[C@@H](CO)C(=O)O [FA3, AVVLS] (Fmoc-AVVLS-OH; N-terminus and C-terminus assumed)
viability at 24 h, 5000 µg/mL [2]: > 80%

CC1=C(/C=C/C(C)=C/C=C/C(C)=C/C(=O)O)C(C)(C)CCC1 [RA, trans-retinoic acid]
differentiation of cells (SH-SY5Y cells): induced differentiation of SH-SY5Y cells towards neuronal lineage

CC(=O)O[C@H]1C(=O)[C@@]2(C)[C@H]([C@H](OC(=O)c3ccccc3)[C@]3(O)C[C@H](OC(=O)[C@H](O)[C@@H](NC(=O)c4ccccc4)c4ccccc4)C(C)=C1C3(C)C)[C@]1(OC(C)=O)CO[C@@H]1C[C@@H]2O [paclitaxel]
cells dead in 2D (MCF7 spheroids [3]; 4 μM, calcein AM / ethidium homodimer-1): 70%
resistance 3D versus 2D (MCF7 spheroids [3]; 2-10 μM, spheroids 5 days on gel 4): 3D are more resistant than 2D

insulin
blood sugar level ([4]; insulin encapsulated in the hydrogels, subcutaneously injected): 100 to 120 mg/dL
time blood glucose level maintained after administration ([4]; only insulin control): ≤ 6 h
time serum insulin level maintained after administration ([4]; only insulin control): ≤ 6 h
